From PubChem BioAssay (NCI) come the findings set out here.

Molecules are shown by their SMILES.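 Compound exposure: 48 hours, 5 concentrations, 96-well plates. GI50 marks 50% less growth. Definition used: TGI = concentration required for complete inhibition of growth.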

Holding throughout (assay): inhibition of tumour cell growth, NCI panel, 48 h
Test [1] concerns HOP-62 NSCLC.
Test [2] deals with M14 melanoma.
The test system of test [3] is MOLT-4 leukemia.
Test [4] has as its system RXF 393 renal.
Test [5] deals with SF-268 CNS.
Test [6] relates to SF-295 CNS.
Test [7] deals with SW-620 colon.
Test [8] concerns T-47D breast.
The subject of test [9] is COLO 205 colon.
Test [10] has as its system OVCAR-3 ovarian.

On to `CCCCCCCCCCCCCCCCCCNC(=O)[C@H]1CSC(c2ccc(F)c(OC)c2)N1` (stereo not given in full), for which the GI50 in test [1] was 843 nM; in test [2], 713 nM; in test [3] it was 717 nM; in test [4] it was 894 nM; in [5], 908 nM; in [6] it was 2140 nM. Besides, the GI50 in [7] was 500 nM; in test [8], 604 nM. For the same molecule, the TGI was 1600 nM in [1]; 1470 nM in test [2]; 5170 nM in test [3]; 1600 nM in test [4]; 1840 nM in [5]; 13700 nM in test [6]. Besides, the TGI in [7] was 1540 nM; in [8] it was 1460 nM.

For `COc1cc(/C=C2/C(=O)N(C(=O)c3ccccc3O)N=C2C)ccc1O`, the TGI in [9] is more than 80700 nM; in [1], more than 38900 nM; in test [2], 35300 nM; in [3] it was more than 100000 nM; in test [10], 989 nM; in test [5] it was more than 100000 nM. The TGI in [6], in test [7] and in test [8] was more than 100000 nM each time.

Turning to `COc1ccc(-c2nc(/C=N/Nc3cc(C)nc4ccc(Br)cc34)c(C)o2)cc1`, the GI50 in test [9] is 1670 nM; in test [1] it was 1670 nM; in test [2], 1780 nM; in [10], 1840 nM; in test [4] it was 1440 nM; in [6], 1900 nM. Moreover, the results for the GI50 in test [7] and in test [8] were 415 nM and 1780 nM, respectively. The TGI in test [9] worked out at 3350 nM; in test [1], 3250 nM; in test [2] it was 3390 nM; in [10], 3410 nM; in test [4] it was 2930 nM; in test [6], 3490 nM. In addition, the TGI in [7] came to 1560 nM; in test [8] it was 3690 nM.

On to `O=C(O)C(Cc1c[nH]c2ccccc12)N1C(=O)c2ccccc2C1=O` (stereo not given), for which the TGI in [9], in test [1], in test [2], in test [10], in [4] and in test [5] was more than 100000 nM in each case. In addition, the TGI in test [6], in [7] and in [8] was more than 100000 nM each time.

Turning to `NCCn1c2c(c3ccccc3c1=O)C(=O)c1ccccc1-2`, the GI50 in test [9] was 605 nM; in [1], 369 nM; in [3], less than 37.8 nM; in [10] it was 681 nM; in test [4], 1870 nM; in test [5], 1320 nM. Moreover, the GI50 is 315 nM in test [6], 147 nM in test [7] and 308 nM in test [8]. Besides, the TGI worked out at 3990 nM in test [9]; 1100 nM in test [1]; 95 nM in test [3]; 2530 nM in test [10]; 6550 nM in test [4]; 8990 nM in test [5]. In addition, the TGI in test [6] amounted to 1480 nM; in test [7], 4320 nM; in test [8], 1280 nM.

`CC(C)(C)OC(=O)n1c(Cl)c(C(=O)N=C=S)c2ccccc21`: the GI50 in test [9] is 33600 nM; in [1], more than 100000 nM; in test [2] it was more than 100000 nM; in [10], 25600 nM; in test [4] it was 53400 nM; in [5] it was 37500 nM. For the same molecule, the GI50 in test [6] was 33000 nM; in test [7], 35400 nM; in [8], 47800 nM. Besides, the TGI in test [9] is more than 100000 nM; in test [1], more than 100000 nM; in [2] it was more than 100000 nM; in [10], 72900 nM; in test [4], more than 100000 nM; in test [5] it was more than 100000 nM. Also, the TGI in test [6], in test [7] and in test [8] was more than 100000 nM throughout.

As to `CNc1ccc(N=Nc2cccc3ncccc23)cc1`, the GI50 in test [9] was 2480 nM; in [1], 49000 nM; in test [2] it was 44300 nM; in test [3], 14200 nM; in [4], 28700 nM; in test [5], 39300 nM. Besides, the GI50 is 17800 nM in [6], 37100 nM in test [7] and 34.6 nM in test [8]. Also, the TGI in test [9], in test [1], in [2], in test [3], in test [4] and in [5] was more than 100000 nM in each case. Moreover, the TGI in test [6] was more than 100000 nM; in [7], more than 100000 nM; in test [8], more than 77100 nM.

In the case of `COc1ccc(-c2conc2-c2ccccc2)cc1`, the GI50 was 248 nM in test [9]; 430 nM in [1]; 268 nM in test [2]; 706 nM in [3]; 249 nM in test [4]; 1670 nM in [5]. Besides, the GI50 in [6] was 317 nM; in test [7], 81 nM; in test [8] it was 329 nM. In addition, the TGI in [9] is 1420 nM; in test [1], more than 100000 nM; in test [2], more than 100000 nM; in test [3] it was more than 100000 nM; in [4], more than 100000 nM; in [5], more than 100000 nM. Besides, the TGI in test [6], in test [7] and in [8] was more than 100000 nM in each case.

As for `N#CC1=C(N)Oc2c(sc3c(Br)cccc23)C1c1ccc(F)cc1` (stereo not given), the GI50 is 366 nM in test [9]; 354 nM in test [1]; 300 nM in test [2]; 473 nM in [3]; 265 nM in test [10]; 1750 nM in [5]. The figures for the GI50 in [6], in test [7] and in test [8] were 234 nM, 476 nM and 340 nM, respectively. The TGI in test [9] amounted to 1690 nM; in test [1], 17900 nM; in test [2] it was 14900 nM; in [3] it was 14200 nM; in [10], 917 nM; in test [5], 24200 nM. The TGI in test [6] was 815 nM; in test [7], 34600 nM; in test [8] it was 19700 nM.
